Laboratory results reported in patent US20230293407A1, “Compositions Comprising (Bio)-Alkanediols with Antimicrobials for Product Protection” (Symrise AG, priority 2020, published 2023).
Read-outs that look alike come from different tables or passages of the source.

What was measured:
Test in all cases: preservation efficacy test (PET), European Pharmacopoeia 5.1.3
Assay type in all cases: cell-based
Candida albicans = settings: for CA germ count, 2 days / count at 2 days: 2 days after inoculation; for CA germ count, 2 days / CA germ count, 7 days / CA germ count, 14 days / CA germ count, 28 days: substance at given % in test formulation; for CA germ count, 14 days / count at 14 days: 14 days after inoculation
Pseudomonas aeruginosa = settings: for PA germ count, 2 days / PA germ count, 7 days / PA germ count, 14 days / PA germ count, 28 days: substance at given % in test formulation
Aspergillus brasiliensis = test system: Aspergillus brasiliensis
Staphylococcus aureus = settings: for SA germ count, 7 days / SA germ count, 14 days / SA germ count, 28 days / SA germ count, 2 days: substance at given % in test formulation
Escherichia coli = settings: for EC germ count, 2 days / EC germ count, 7 days / EC germ count, 14 days / EC germ count, 28 days: substance at given % in test formulation
[1] = 7 days after inoculation, substance at given % in test formulation
[2] = 14 days after inoculation, substance at given % in test formulation
[3] = 28 days after inoculation, substance at given % in test formulation
[4] = CA, 7 days after inoculation, use concentration in label
[5] = CA, 28 days after inoculation, use concentration in label
[6] = PA, 2 days after inoculation, use concentration in label
[7] = PA, 7 days after inoculation, use concentration in label
[8] = PA, 14 days after inoculation, use concentration in label
[9] = PA, 28 days after inoculation, use concentration in label
[10] = AB, 2 days after inoculation, use concentration in label
[11] = AB, 7 days after inoculation, use concentration in label
[12] = AB, 14 days after inoculation, use concentration in label
[13] = AB, 28 days after inoculation, use concentration in label
[14] = SA, 7 days after inoculation, use concentration in label
[15] = SA, 14 days after inoculation, use concentration in label
[16] = SA, 28 days after inoculation, use concentration in label
[17] = EC, 2 days after inoculation, use concentration in label
[18] = EC, 7 days after inoculation, use concentration in label
[19] = EC, 14 days after inoculation, use concentration in label
[20] = EC, 28 days after inoculation, use concentration in label
[21] = SA, 2 days after inoculation, use concentration in label

| SMILES | CA germ count, 7 days (Candida albicans; 7 days after inoculation) | CA germ count, 14 days (Candida albicans) | CA germ count, 28 days (Candida albicans; 28 days after inoculation) | PA germ count, 2 days (Pseudomonas aeruginosa; 2 days after inoculation) | PA germ count, 7 days (Pseudomonas aeruginosa; 7 days after inoculation) | PA germ count, 14 days (Pseudomonas aeruginosa; 14 days after inoculation) | PA germ count, 28 days (Pseudomonas aeruginosa; 28 days after inoculation) | count at 28 days (Candida albicans; [5]) | count at 2 days (Pseudomonas aeruginosa; [6]) | count at 7 days (Pseudomonas aeruginosa; [7]) | count at 14 days (Pseudomonas aeruginosa; [8]) | count at 28 days (Pseudomonas aeruginosa; [9]) | count at 28 days (Aspergillus brasiliensis; [13]) | count at 7 days (Staphylococcus aureus; [14]) | count at 14 days (Staphylococcus aureus; [15]) | count at 28 days (Staphylococcus aureus; [16]) | count at 2 days (Escherichia coli; [17]) | count at 7 days (Escherichia coli; [18]) | count at 14 days (Escherichia coli; [19]) | count at 28 days (Escherichia coli; [20]) | also measured |
| --- | --- | --- | --- | --- | --- | --- | --- | --- | --- | --- | --- | --- | --- | --- | --- | --- | --- | --- | --- | --- | --- |
| CCOC(=O)c1ccc(O)cc1 [0.1% Ethylparaben] | 200.000 | 170.000 | 260.000 | 1 | 1 | 1 | 1 |  |  |  |  |  |  |  |  |  |  |  |  |  | CA germ count, 2 days (Candida albicans): 380.000; AB germ count, 7 days (Aspergillus brasiliensis; [1]): 630.000; AB germ count, 14 days (Aspergillus brasiliensis; [2]): 800.000; AB germ count, 28 days (Aspergillus brasiliensis; [3]): 730.000; SA germ count, 7 days (Staphylococcus aureus; 7 days after inoculation): 38.000; SA germ count, 14 days (Staphylococcus aureus; 14 days after inoculation): 1; SA germ count, 28 days (Staphylococcus aureus; 28 days after inoculation): 1; EC germ count, 2 days (Escherichia coli; 2 days after inoculation): 440.000; EC germ count, 7 days (Escherichia coli; 7 days after inoculation): 62.000; EC germ count, 14 days (Escherichia coli; 14 days after inoculation): 280; EC germ count, 28 days (Escherichia coli; 28 days after inoculation): 390 |
| COC(=O)c1ccc(O)cc1 [0.1% Methylparaben] | 210.000 | 85.000 | 11.000 | 1 | 1 | 1 | 1 |  |  |  |  |  |  |  |  |  |  |  |  |  | CA germ count, 2 days (Candida albicans): 100.000; AB germ count, 2 days (Aspergillus brasiliensis; 2 days after inoculation, substance at given % in test formulation): 300.000; AB germ count, 7 days (Aspergillus brasiliensis; [1]): 690.000; AB germ count, 14 days (Aspergillus brasiliensis; [2]): 300.000; AB germ count, 28 days (Aspergillus brasiliensis; [3]): 240.000; SA germ count, 7 days (Staphylococcus aureus; 7 days after inoculation): 6.100; SA germ count, 14 days (Staphylococcus aureus; 14 days after inoculation): 140; SA germ count, 28 days (Staphylococcus aureus; 28 days after inoculation): 1; EC germ count, 2 days (Escherichia coli; 2 days after inoculation): 680.000; EC germ count, 7 days (Escherichia coli; 7 days after inoculation): 18.000; EC germ count, 14 days (Escherichia coli; 14 days after inoculation): 45; EC germ count, 28 days (Escherichia coli; 28 days after inoculation): 1 |
| Cc1ccc(C(C)C)c(O)c1 [0.1% Thymol] |  |  |  |  |  |  |  | 1.400 | 1 | 1 | 1 | 1 | 650.000 | 23.000 | 120 | 1 | 720.000 | 200.000 | 200 | 27 | count at 2 days (Candida albicans; CA, use concentration in label): 69.000; count at 7 days (Candida albicans; [4]): 640.000; count at 14 days (Candida albicans; CA, use concentration in label): 180; count at 2 days (Aspergillus brasiliensis; [10]): 580.000; count at 7 days (Aspergillus brasiliensis; [11]): 520.000; count at 14 days (Aspergillus brasiliensis; [12]): 290.000 |
| CCCCCC(O)CO (stereo not drawn) [0.2 % 1,2-heptanediol] |  |  |  |  |  |  |  | 420.000 | 1 | 1 | 1 | 1 | 220.000 | 2.300 | 1 | 1 | 53.000 | 1.100 | 1 | 1 | count at 2 days (Aspergillus brasiliensis; [10]): 790.000; count at 7 days (Aspergillus brasiliensis; [11]): 630.000; count at 14 days (Aspergillus brasiliensis; [12]): 230.000; count at 2 days (Staphylococcus aureus; [21]): 84.000 |
| O=C([O-])CN(CCN(CC(=O)O)CC(=O)O)CC(=O)[O-].[Na+].[Na+] [0.2 % Disodium EDTA] |  |  |  |  |  |  |  | 810.000 | 1 | 1 | 1 | 1 | 330.000 | 49.000 | 49.000 | 2.500 | 330.000 | 85.000 | 85.000 | 1.800 | count at 2 days (Aspergillus brasiliensis; [10]): 990.000; count at 7 days (Aspergillus brasiliensis; [11]): 590.000; count at 14 days (Aspergillus brasiliensis; [12]): 590.000; count at 2 days (Staphylococcus aureus; [21]): 530.000 |
| O=C(OCc1ccccc1)c1ccccc1O [0.2% Benzyl Salicylate] | 600.000 | 370.000 | 390.000 | 1.200 | 790 | 160.000 | 44.000 |  |  |  |  |  |  |  |  |  |  |  |  |  | AB germ count, 14 days (Aspergillus brasiliensis; [2]): 750.000; AB germ count, 28 days (Aspergillus brasiliensis; [3]): 630.000; SA germ count, 2 days (Staphylococcus aureus; 2 days after inoculation): 670.000; SA germ count, 7 days (Staphylococcus aureus; 7 days after inoculation): 9.200; SA germ count, 14 days (Staphylococcus aureus; 14 days after inoculation): 1; SA germ count, 28 days (Staphylococcus aureus; 28 days after inoculation): 1; EC germ count, 2 days (Escherichia coli; 2 days after inoculation): 250.000; EC germ count, 7 days (Escherichia coli; 7 days after inoculation): 13.000; EC germ count, 14 days (Escherichia coli; 14 days after inoculation): 640; EC germ count, 28 days (Escherichia coli; 28 days after inoculation): 430 |
| O=C([O-])c1ccccc1.[Na+] [0.2% Sodium Benzoate] |  |  |  |  |  |  |  |  |  |  |  |  |  |  |  |  |  |  |  |  | count at 7 days (Candida albicans): 250.000; count at 28 days (Candida albicans): 1; count at 2 days (Pseudomonas aeruginosa): 1; count at 7 days (Pseudomonas aeruginosa): 1; count at 14 days (Pseudomonas aeruginosa): 1; count at 28 days (Pseudomonas aeruginosa): 1; count at 2 days (Aspergillus brasiliensis): 760.000; count at 7 days (Aspergillus brasiliensis): 880.000; count at 14 days (Aspergillus brasiliensis): 200.000; count at 28 days (Aspergillus brasiliensis): 230.000; count at 2 days (Staphylococcus aureus): 320.000; count at 7 days (Staphylococcus aureus): 74.000; count at 14 days (Staphylococcus aureus): 1; count at 28 days (Staphylococcus aureus): 1; count at 2 days (Escherichia coli): 130.000; count at 7 days (Escherichia coli): 11.000; count at 14 days (Escherichia coli): 1; count at 28 days (Escherichia coli): 1 |
| CC(C)=CCC[C@](C)(O)[C@@H]1CC=C(C)CC1 [0.3% Dragosantol 100] | 920.000 | 28.000 | 58.000 | 1 | 1 | 1 | 1 |  |  |  |  |  |  |  |  |  |  |  |  |  | CA germ count, 2 days (Candida albicans): 800.000; AB germ count, 7 days (Aspergillus brasiliensis; [1]): 880.000; AB germ count, 14 days (Aspergillus brasiliensis; [2]): 620.000; AB germ count, 28 days (Aspergillus brasiliensis; [3]): 660.000; SA germ count, 2 days (Staphylococcus aureus; 2 days after inoculation): 370.000; SA germ count, 7 days (Staphylococcus aureus; 7 days after inoculation): 290; SA germ count, 14 days (Staphylococcus aureus; 14 days after inoculation): 1; SA germ count, 28 days (Staphylococcus aureus; 28 days after inoculation): 1; EC germ count, 2 days (Escherichia coli; 2 days after inoculation): 120.000; EC germ count, 7 days (Escherichia coli; 7 days after inoculation): 200; EC germ count, 14 days (Escherichia coli; 14 days after inoculation): 1; EC germ count, 28 days (Escherichia coli; 28 days after inoculation): 1 |
| CCCCC(O)C(C)O (stereo not drawn) [0.4% 2,3-heptanediol] |  |  |  |  |  |  |  | 11.000 | 1 | 1 | 1 | 1 | 390.000 | 12.000 | 1 | 1 | 320.000 | 2.400 | 1 | 1 | count at 2 days (Candida albicans; CA, use concentration in label): 640.000; count at 7 days (Candida albicans; [4]): 350.000; count at 14 days (Candida albicans; CA, use concentration in label): 130.000; count at 2 days (Aspergillus brasiliensis; [10]): 790.000; count at 7 days (Aspergillus brasiliensis; [11]): 930.000; count at 14 days (Aspergillus brasiliensis; [12]): 500.000 |
| CC(=O)CCc1ccc(OCCO)cc1 [0.4% Hydroxyethoxyphenyl Butanone] |  |  |  |  |  |  |  | 450 | 1 | 1 | 1 | 1 | 810.000 | 1 | 1 | 1 | 200 | 1 | 1 | 1 | count at 2 days (Candida albicans; CA, use concentration in label): 95.000; count at 7 days (Candida albicans; [4]): 1; count at 14 days (Candida albicans; CA, use concentration in label): 490; count at 2 days (Staphylococcus aureus; [21]): 39.000 |
